Measured values from patent EP2108954A1, “A test system for detecting intracellular cyclic nucleotide level and methods and uses thereof” (Max-Planck-Gesellschaft zur Förderung der Wissenschaften …, priority 2008, dated 2009).
Where “and” joins values, the source holds several entries; their conditions need not be identical. Equal values may be shown once.

How the values were obtained:
Or47a and Or83b = target: T1, Or47a and Or83b (Drosophila melanogaster, UniProt P81921+Q9VNB5); assay: Whole-cell patch-clamp of HEK293 cells expressing Or47a and Or83b; format: cell-based; settings: 100 µM; -100 mV (Fig. 7)
T1 construct: expressed in transfected cells; host or cells: HEK293
T1 sequence (P81921 1-385): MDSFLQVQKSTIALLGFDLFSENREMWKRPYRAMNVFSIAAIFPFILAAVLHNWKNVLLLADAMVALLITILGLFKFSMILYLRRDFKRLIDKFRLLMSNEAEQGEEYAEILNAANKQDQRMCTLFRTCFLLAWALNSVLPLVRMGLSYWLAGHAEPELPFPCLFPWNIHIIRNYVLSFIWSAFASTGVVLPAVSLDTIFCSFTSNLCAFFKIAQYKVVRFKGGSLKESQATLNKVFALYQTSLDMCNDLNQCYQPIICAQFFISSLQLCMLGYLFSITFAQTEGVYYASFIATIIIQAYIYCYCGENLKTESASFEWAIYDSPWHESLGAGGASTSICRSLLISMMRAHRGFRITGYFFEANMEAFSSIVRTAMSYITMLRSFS
T1 sequence (Q9VNB5 1-486): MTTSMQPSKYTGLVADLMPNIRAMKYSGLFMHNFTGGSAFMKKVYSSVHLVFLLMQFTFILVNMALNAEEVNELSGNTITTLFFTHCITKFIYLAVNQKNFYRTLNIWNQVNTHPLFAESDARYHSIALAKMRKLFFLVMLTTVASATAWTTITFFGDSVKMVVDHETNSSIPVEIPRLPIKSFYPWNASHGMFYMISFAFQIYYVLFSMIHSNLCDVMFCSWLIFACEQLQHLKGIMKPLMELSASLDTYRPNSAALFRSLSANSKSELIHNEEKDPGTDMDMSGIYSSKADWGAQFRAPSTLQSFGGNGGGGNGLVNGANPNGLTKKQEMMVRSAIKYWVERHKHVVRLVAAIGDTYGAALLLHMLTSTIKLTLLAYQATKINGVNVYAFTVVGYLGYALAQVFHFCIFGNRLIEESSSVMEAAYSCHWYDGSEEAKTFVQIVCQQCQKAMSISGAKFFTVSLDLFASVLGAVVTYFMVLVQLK
Method: (§1) In some experiments we transfected cells with pcDNA3-DOR22a-GFP or pcDNA3-DOR83b-GFP alone. We also examined the properties of DOR47a, which was cloned, using standard molecular biology methods into a pcDNA3.1(-) expression vector. To test for putative G-protein coupling, cells were transfected with the respective OR-DNA together with 1.5 µg hHCN2/pcDNA3 (provided by M. Biel, Munich, Germany), with 1 µg hKCNQ4/pcDNA3.1 or with 1 µg hCNGA2/pCMV6-XL4 (Origene, Rockville, MD, USA).
(§2) In brief, ion currents in HEK293 cells were measured at room temperature using whole-cell patch-clamp with appropriate compensation of series resistance and of capacitive currents. Additional experiments were performed in the outside-out configuration. Current measurements and data acquisition were performed using an EPC9 patch-clamp amplifier controlled by PatchMaster software (both HEKA Elektronik, Lambrecht, Germany). Patch-clamp pipettes were fabricated from borosilicate capillaries. Pipettes for whole-cell recordings had resistances of 2-4 MΩ for excised-patch recordings the pipette resistance was up to 15 MΩ.

Or83b [1] = target: T2, Or83b (Drosophila melanogaster, UniProt Q9VNB5); assay: Whole-cell patch-clamp of HEK293 cells expressing Or83b alone; format: cell-based; set-up: expressed in transfected cells; host or cells: HEK293
T2 sequence (Q9VNB5 1-486): T1 sequence (Q9VNB5 1-486)
Method: as §1, §2
(§3) To differentiate between ionotropic and metabotropic pathways of receptor activation (Fig. 2a-d) the pipette solution contained either 2 mM ATP plus 2 mM GTP or 2 mM ADP plus 2 mM GDP (both for whole-cell and outside-out configuration). For the preparation of Cl^--free solutions the chloride salts were substituted by gluconate salts. The pipette Cs^+ solution contained (in mM) 140 CsCl, 1 Mg-ATP, 10 EGTA, 10 HEPES (pH = 7.3), and the Cs^+ bath solution contained (in mM) 140 CsCl, 15 glucose, 15 HEPES (pH = 7.4). The Ca^2+-free bath solution contained (in mM) 140 NaCl, 15 glucose, 15 HEPES, and the Na^+-free bath solution contained (in mM) 140 NMDG-Cl, 10 CaCl2, 10 glucose, 15 HEPES.
(§4) With the exception of GDP-γ-S, which was applied via the patch pipette, all substances were applied to the bath using either a bath perfusion system (BPS4 from ALA, New York, USA) or a rapid solution changer (RSC160 from Biologic, Claix, France) which were controlled by the PatchMaster software (HEKA Elektronik).

Or83b [2] = target: T2, Or83b; assay: Calcium imaging (fura-2) in HEK293 cells expressing Or83b; format: cell-based; set-up: expressed in transfected cells; host or cells: HEK293; settings: cell expressing Or83b (Fig. 6e)
Method: Free intracellular Ca^2+ concentration ([Ca^2+]i) was determined by fura-2 fluorescence as described (Messutat et al., Cell Calcium 30, 199-211. (2001)). In brief, cells were loaded with fura-2 by incubation in bath solution containing 2 µM fura-2/acetomethylester for 20 min. Free intracellular Ca^2+ concentration ([Ca^2+]i) was determined with the fluorescence ratio method. Excitation of fura-2 at 340 and 380 nm was performed with a monochromator (Polychrome II, T.I.L.L. Photonics, Gräfelfing, Germany) coupled via an epifluorescence condenser into an Axioskop FS microscope (Carl Zeiss, Jena, Germany) with a water immersion objective (LUMPFL 40xW/IR/0.8; Olympus, Hamburg, Germany). […] [Ca^2+]i was calculated according to the equation [Ca^(2 +)]i = Keff (R-Rmin)/(Rmax-R). […] Keff, Rmin, and Rmax were determined using HEK293 cells permeabilized with 2 µM ionomycin and three solutions with different concentrations of free Ca^2+ (Ca^2+ free; 5 mM Ca^2+; 500 nM Ca^2+; the composition of the 500 nM solution was calculated with WEBMAXC v.2.20) (Patton et al., Cell Calcium 35, 427-31 (2004)). […]
Fluorescence images were acquired using a cooled CCD camera controlled by TILLVision 4.0 software (T.I.L.L. Photonics). […] Image pairs were obtained by excitation for 100 ms at 340 nm and 380 nm; background fluorescence was subtracted.

Or22a and Or83b = target: T3, Or22a and Or83b (Drosophila melanogaster, UniProt P81909+Q9VNB5); assay: Whole-cell patch-clamp of currents in HEK293 cells coexpressing Or22a and Or83b; format: cell-based; settings: absence of Etb; 10 µM benzaldehyde; n = 6
T3 construct: expressed in transfected cells; host or cells: HEK293
T3 sequence (P81909 1-397): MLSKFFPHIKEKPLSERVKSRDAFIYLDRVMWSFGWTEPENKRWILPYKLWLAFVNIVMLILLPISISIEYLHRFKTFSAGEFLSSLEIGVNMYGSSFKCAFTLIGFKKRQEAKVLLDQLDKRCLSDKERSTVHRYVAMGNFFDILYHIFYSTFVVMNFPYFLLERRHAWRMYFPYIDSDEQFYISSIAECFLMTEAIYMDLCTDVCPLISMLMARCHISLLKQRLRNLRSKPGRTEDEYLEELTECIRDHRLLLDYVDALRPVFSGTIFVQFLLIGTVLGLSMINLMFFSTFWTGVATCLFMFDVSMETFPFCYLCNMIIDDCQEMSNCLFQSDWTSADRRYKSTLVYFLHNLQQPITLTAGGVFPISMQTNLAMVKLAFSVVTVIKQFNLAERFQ
T3 sequence (Q9VNB5 1-486): T1 sequence (Q9VNB5 1-486)
Method: as §1, §2, §3, §4

Or83b [3] = target: T2, Or83b; assay: cell-based; settings: -60 mV, n = 10
Method: For this, HEK293 cells were cultured at a density of ∼2*10^4 per 35-mm dish and transfected with 1 µg pcDNA3-DOR83b-GFP (Neuhaus et al., Nat Neurosci 8: 15-17, 2005.) using Roti-Fect transfection kit (Roth, Karlsruhe, Germany). For electrophysiological experiments we only used cells showing GFP fluorescence (when illuminated at 470 nm) as indicator of putative OR expression.
For electrophysiological studies, ion currents in HEK293 cells were measured at room temperature in the inside-out configuration. Current measurements and data acquisition were performed using an EPC9 patch-clamp amplifier controlled by PatchMaster software (both HEKA Elektronik, Lambrecht, Germany). Patch-clamp pipettes were fabricated from borosilicate capillaries. Pipettes for whole-cell recordings had resistances of up to 15 MΩ. The bath solution contained (in mM) 140 KCI, 4 NaCl, 2.2 CaCl2, 2 Mg-ATP, 0.05 Na-GTP, 5 EGTA, 10 HEPES (pH 7.3), and the pipette solution contained (in mM) 135 NaCl, 5 KCI, 1 CaCl2, 1 MgCl2, 10 HEPES, 10 glucose (pH 7.4).

[4] = system: modified cyclic nucleotide-gated ion channels; settings: US 07166463 and US 07341836; cited from earlier work
vertebrate CNGA2 channel = target: T4, vertebrate CNGA2 channel (Rattus norvegicus, UniProt Q00195); settings: Dhallan et al., Nature 347 (1990); cited from earlier work
T4 sequence (Q00195 1-664): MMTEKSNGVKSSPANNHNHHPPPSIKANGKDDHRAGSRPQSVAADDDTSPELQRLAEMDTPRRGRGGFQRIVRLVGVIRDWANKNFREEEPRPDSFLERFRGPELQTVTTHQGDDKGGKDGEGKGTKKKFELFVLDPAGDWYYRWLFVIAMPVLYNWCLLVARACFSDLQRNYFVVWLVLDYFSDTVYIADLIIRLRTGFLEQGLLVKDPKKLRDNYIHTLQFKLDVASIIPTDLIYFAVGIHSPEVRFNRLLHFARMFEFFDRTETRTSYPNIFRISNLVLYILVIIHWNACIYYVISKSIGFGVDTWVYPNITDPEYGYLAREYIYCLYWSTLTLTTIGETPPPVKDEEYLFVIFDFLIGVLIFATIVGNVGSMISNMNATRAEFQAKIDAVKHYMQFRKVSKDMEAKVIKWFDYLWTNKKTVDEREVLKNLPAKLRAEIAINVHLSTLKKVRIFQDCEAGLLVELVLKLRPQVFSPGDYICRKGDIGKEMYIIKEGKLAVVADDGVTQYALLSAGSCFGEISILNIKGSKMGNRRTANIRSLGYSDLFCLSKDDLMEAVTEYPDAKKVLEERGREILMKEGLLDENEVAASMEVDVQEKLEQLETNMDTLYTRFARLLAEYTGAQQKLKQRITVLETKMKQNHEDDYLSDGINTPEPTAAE

[5] = target: Periplaneta adipokinetic hormone receptor (pAKHR) (Periplaneta); assay: cell-based or functional assay

Nc1nc2c(nc(Br)n2[C@@H]2O[C@@H]3COP(=O)(O)O[C@H]3[C@H]2O)c(=O)[nH]1 [8-bromo-cGMP]
current response of cells (Or47a and Or83b): responsive
current elicited (Or83b [1]; Or83b-expressing HEK293 cells): elicited a current similar to that obtained upon 8-bromo-cAMP application
agonist comparison for current activation (Or83b [1]; concentration-response relations, -100 mV (Fig. 6d)): significantly better agonist than 8-bromo-cAMP
agonist comparison for the elevation of [Ca^2+]i (Or83b [2]): significantly better agonist than 8-bromo-cAMP

O=Cc1ccccc1 [Bea, benzaldehyde]
effect on current recorded under control conditions (Or22a and Or83b): reduced the current recorded under control conditions

CCCCCCOC(=O)C1(O)CC2OC1(C)n1c3ccccc3c3c4c(c5c6ccccc6n2c5c31)C(=O)NC4 (stereo not drawn) [KT5720]
effect of preincubation on ion currents elicited by 8-bromo-cAMP (Or83b [1]; 10 µM, n = 6): not significantly altered

CCCCCOC(C)=O [PA, pentyl acetate]
current response of cells (Or47a and Or83b): responding

Nc1ncnc2c1ncn2[C@@H]1O[C@@H]2COP(=O)(O)O[C@H]2[C@H]1O [cAMP, 3'-5'-cyclic adenosine monophosphate]
Hill coefficient of mean currents of inside-out patches (Or83b [3]): 0.42
EC50 (Or83b [3]; EC50 of mean currents of inside-out patches): 1 nM and 1.1 nM
EC50 [4]: 14.5 µM

Nc1nc2c(ncn2[C@@H]2O[C@@H]3COP(=O)(O)O[C@H]3[C@H]2O)c(=O)[nH]1 [cGMP, cyclic guanosine monophosphate]
EC50 (vertebrate CNGA2 channel): 1000 nM

adipokinetic hormone I (AKH I) (peptide)
membrane current at -100 mV (whole-cell patch clamp, ramp protocol) in HEK293 cells coexpressing pAKHR and the cAMP-activated channel Or83b, after application of AKH I [5]: 294 pA
